pIC50: −log10 of the molar value. Converted amounts (≈) assume the structure as drawn.

The target of one assay is DNA gyrase subunit A (Escherichia coli K-12, UniProt P0AES4, A67S). The experiment in a line: Inhibition of DNA supercoiling activity of Escherichia coli DNA gyrase gyrA A67S mutant.
The pIC50 is −log10 of the IC50, conventionally taken in molar units. The low end stands for a large IC50, the high end for a small IC50. On to `CC[C@@H]1CCN(c2c(F)cc3c(=O)n(N)c(=O)n(C4CC4)c3c2OC)C1`, for which the negative-log IC50 (pIC50) is 5.62.
In the case of `CC[C@@H]1CCN(c2c(F)cn3c(=O)n(N)c(=O)c(C4CC4)c3c2OC)C1`, the pIC50 was 4.72.
Take `CC[C@@H]1CCN(c2c(F)cc3c(=O)n(N)c(=O)n(C4CC4)c3c2C)C1`: the negative logarithm of the IC50 (pIC50) is 5.92.
The molecule `CC[C@@H]1CCN(c2c(F)cc3c(=O)c(C(=O)O)cn(C4CC4)c3c2OC)C1` showed a pIC50 of 6.92.

A further assay has as its system Escherichia coli. The experiment in a line: Selectivity ratio of IC50 for Escherichia coli DNA gyrase gyrA S83W mutant to IC50 for Escherichia coli wild-type DNA gyrase.
Turning to `CC[C@@H]1CCN(c2c(F)cc3c(=O)n(N)c(=O)n(C4CC4)c3c2OC)C1`, the Ratio IC50 is 2.1.
Consider `CC[C@@H]1CCN(c2c(F)cn3c(=O)n(N)c(=O)c(C4CC4)c3c2OC)C1`, for which the Ratio IC50 is 6.1.
Regarding `CC[C@@H]1CCN(c2c(F)cc3c(=O)n(N)c(=O)n(C4CC4)c3c2C)C1`, the Ratio IC50 was determined as 4.
For the molecule `CC[C@@H]1CCN(c2c(F)cc3c(=O)c(C(=O)O)cn(C4CC4)c3c2OC)C1`, the Ratio IC50 came out at 8.8.

In another assay the test system is Escherichia coli. As to the kind of experiment: Selectivity index, ratio of IC50 for Escherichia coli Topoisomerase 4 to IC50 for Escherichia coli DNA gyrase.
Consider `CC[C@@H]1CCN(c2c(F)cc3c(=O)n(N)c(=O)n(C4CC4)c3c2OC)C1`, for which the Ratio IC50 is 5.7.
On to `CC[C@@H]1CCN(c2c(F)cn3c(=O)n(N)c(=O)c(C4CC4)c3c2OC)C1`, for which the Ratio IC50 turned out to be 14.8.
On to `CC[C@@H]1CCN(c2c(F)cc3c(=O)n(N)c(=O)n(C4CC4)c3c2C)C1`, for which the Ratio IC50 was 6.3.
Take `CC[C@@H]1CCN(c2c(F)cc3c(=O)c(C(=O)O)cn(C4CC4)c3c2OC)C1`: the Ratio IC50 is 10.6.

Tested on in the next assay: not listed separately
The experiment in a line: Inhibition of DNA decatenation activity of Escherichia coli DNA topoisomerase 4.
Consider `CC[C@@H]1CCN(c2c(F)cc3c(=O)n(N)c(=O)n(C4CC4)c3c2OC)C1`, for which the pIC50 is 4.80.
Turning to `CC[C@@H]1CCN(c2c(F)cn3c(=O)n(N)c(=O)c(C4CC4)c3c2OC)C1`, the negative logarithm of the IC50 (pIC50) was 3.79.
Turning to `CC[C@@H]1CCN(c2c(F)cc3c(=O)n(N)c(=O)n(C4CC4)c3c2C)C1`, the negative-log IC50 (pIC50) is 5.22.
Consider `CC[C@@H]1CCN(c2c(F)cc3c(=O)c(C(=O)O)cn(C4CC4)c3c2OC)C1`, for which the pIC50 was 5.77.
Same read-out and setting: the same measure for `O=C(O)c1cn(C2CC2)c2cc(N3CCNCC3)c(F)cc2c1=O` [CIPROFLOXACIN]: 4.80.

In another assay the test system is Staphylococcus aureus. As to the kind of experiment: Selectivity index, ratio of IC50 for Staphylococcus aureus Topoisomerase 4 to IC50 for Staphylococcus aureus DNA gyrase.
In the case of `CC[C@@H]1CCN(c2c(F)cc3c(=O)n(N)c(=O)n(C4CC4)c3c2OC)C1`, the Ratio IC50 worked out at 2.4.
On to `CC[C@@H]1CCN(c2c(F)cn3c(=O)n(N)c(=O)c(C4CC4)c3c2OC)C1`, for which the Ratio IC50 was 1.3.
On to `CC[C@@H]1CCN(c2c(F)cc3c(=O)n(N)c(=O)n(C4CC4)c3c2C)C1`, for which the Ratio IC50 was 1.8.
The same measure, in the same setting: under `CC[C@@H]1CCN(c2c(F)cc3c(=O)c(C(=O)O)cn(C4CC4)c3c2OC)C1` stands 2.2.

The target of a further assay is DNA gyrase subunit A (Escherichia coli K-12, UniProt P0AES4, G81C). The experiment in a line: Inhibition of DNA supercoiling activity of Escherichia coli DNA gyrase gyrA G81C mutant.
In turn, `CC[C@@H]1CCN(c2c(F)cc3c(=O)n(N)c(=O)n(C4CC4)c3c2OC)C1` had a pIC50 of 5.37.
`CC[C@@H]1CCN(c2c(F)cn3c(=O)n(N)c(=O)c(C4CC4)c3c2OC)C1` showed a pIC50 of 4.51.
Molecule `CC[C@@H]1CCN(c2c(F)cc3c(=O)n(N)c(=O)n(C4CC4)c3c2C)C1` had a negative logarithm of the IC50 (pIC50) of 5.77.
`CC[C@@H]1CCN(c2c(F)cc3c(=O)c(C(=O)O)cn(C4CC4)c3c2OC)C1` showed a negative logarithm of the IC50 (pIC50) of 5.92.

Tested on in another assay: not listed separately
The experiment in a line: Inhibition of DNA supercoiling activity of Escherichia coli DNA gyrase.
In the case of `CC[C@@H]1CCN(c2c(F)cc3c(=O)n(N)c(=O)n(C4CC4)c3c2OC)C1`, the pIC50 was 5.55.
Still for that read-out and setting: the same measure for `CC[C@@H]1CCN(c2c(F)cn3c(=O)n(N)c(=O)c(C4CC4)c3c2OC)C1`: 4.96.
The molecule `CC[C@@H]1CCN(c2c(F)cc3c(=O)n(N)c(=O)n(C4CC4)c3c2C)C1` gave a negative logarithm of the IC50 (pIC50) of 6.02.
As to `CC[C@@H]1CCN(c2c(F)cc3c(=O)c(C(=O)O)cn(C4CC4)c3c2OC)C1`, the pIC50 is 6.80.
Take `O=C(O)c1cn(C2CC2)c2cc(N3CCNCC3)c(F)cc2c1=O` [CIPROFLOXACIN]: the pIC50 is 6.35.

A further assay concerns Escherichia coli. As to the kind of experiment: Antimicrobial activity against Escherichia coli. Format: functional.
One may read the MIC as the lowest concentration found to suppress growth. Higher therefore signals a less susceptible organism. The molecule `CC[C@@H]1CCN(c2c(F)cc3c(=O)n(N)c(=O)n(C4CC4)c3c2OC)C1` returned a minimum inhibitory concentration (MIC) of 2.5 µg/mL (≈ 6.9 µM).
`CC[C@@H]1CCN(c2c(F)cc3c(=O)c(C(=O)O)cn(C4CC4)c3c2OC)C1` gave a minimum inhibitory concentration (MIC) of 0.004 µg/mL (≈ 0.0107 µM).

The target in the next assay is DNA gyrase subunit A (Escherichia coli K-12, UniProt P0AES4, S83W). As to the kind of experiment: Inhibition of DNA supercoiling activity of Escherichia coli DNA gyrase gyrA S83W mutant.
Turning to `CC[C@@H]1CCN(c2c(F)cc3c(=O)n(N)c(=O)n(C4CC4)c3c2OC)C1`, the negative logarithm of the IC50 (pIC50) is 5.23.
Consider `CC[C@@H]1CCN(c2c(F)cn3c(=O)n(N)c(=O)c(C4CC4)c3c2OC)C1`, for which the pIC50 was 4.17.
Same read-out and setting: the same measure for `CC[C@@H]1CCN(c2c(F)cc3c(=O)n(N)c(=O)n(C4CC4)c3c2C)C1`: 5.42; for `CC[C@@H]1CCN(c2c(F)cc3c(=O)c(C(=O)O)cn(C4CC4)c3c2OC)C1`: 5.85.

Tested on in a further assay: not listed separately
The experiment in a line: Inhibition of DNA decatenation activity of Staphylococcus aureus DNA topoisomerase 4.
With `CC[C@@H]1CCN(c2c(F)cc3c(=O)n(N)c(=O)n(C4CC4)c3c2OC)C1`, the negative-log IC50 (pIC50) was 5.26.
Same read-out and setting: the same measure for `CC[C@@H]1CCN(c2c(F)cn3c(=O)n(N)c(=O)c(C4CC4)c3c2OC)C1`: 4.32; for `CC[C@@H]1CCN(c2c(F)cc3c(=O)n(N)c(=O)n(C4CC4)c3c2C)C1`: 6.06.
Regarding `CC[C@@H]1CCN(c2c(F)cc3c(=O)c(C(=O)O)cn(C4CC4)c3c2OC)C1`, the pIC50 is 6.30.
On the same count and under the same terms, the same measure for `O=C(O)c1cn(C2CC2)c2cc(N3CCNCC3)c(F)cc2c1=O` [CIPROFLOXACIN]: 5.06.

For another assay, the system named is Escherichia coli. As to the kind of experiment: Ratio of CC3 for Escherichia coli DNA gyrase gyrA A67S mutant to CC3 for Escherichia coli wild-type DNA gyrase.
Regarding `CC[C@@H]1CCN(c2c(F)cc3c(=O)n(N)c(=O)n(C4CC4)c3c2OC)C1`, the Ratio was found to be 1.7.
For `CC[C@@H]1CCN(c2c(F)cn3c(=O)n(N)c(=O)c(C4CC4)c3c2OC)C1`, the Ratio turned out to be 1.5.
Consider `CC[C@@H]1CCN(c2c(F)cc3c(=O)n(N)c(=O)n(C4CC4)c3c2C)C1`, for which the Ratio worked out at 2.5.
Consider `CC[C@@H]1CCN(c2c(F)cc3c(=O)c(C(=O)O)cn(C4CC4)c3c2OC)C1`, for which the Ratio was 1.5.

In another assay the test system is Escherichia coli. As to the kind of experiment: Ratio of CC3 for Escherichia coli DNA gyrase gyrA S83W mutant to CC3 for Escherichia coli wild-type DNA gyrase.
Take `CC[C@@H]1CCN(c2c(F)cc3c(=O)n(N)c(=O)n(C4CC4)c3c2OC)C1`: the Ratio was 2.1.
Consider `CC[C@@H]1CCN(c2c(F)cn3c(=O)n(N)c(=O)c(C4CC4)c3c2OC)C1`, for which the Ratio amounted to 3.4.
On to `CC[C@@H]1CCN(c2c(F)cc3c(=O)n(N)c(=O)n(C4CC4)c3c2C)C1`, for which the Ratio turned out to be 5.6.
In the case of `CC[C@@H]1CCN(c2c(F)cc3c(=O)c(C(=O)O)cn(C4CC4)c3c2OC)C1`, the Ratio was 6.5.

The target in a further assay is DNA gyrase (Staphylococcus aureus, UniProt P0A0K8+P20831). The experiment in a line: Inhibition of DNA supercoiling activity of Staphylococcus aureus DNA gyrase. Format: protein-complex assay.
The molecule `CC[C@@H]1CCN(c2c(F)cc3c(=O)n(N)c(=O)n(C4CC4)c3c2OC)C1` showed a negative logarithm of the IC50 (pIC50) of 5.64.
Still for that read-out and setting: under `CC[C@@H]1CCN(c2c(F)cn3c(=O)n(N)c(=O)c(C4CC4)c3c2OC)C1` stands 4.44.
The same measure, in the same setting: the same measure for `CC[C@@H]1CCN(c2c(F)cc3c(=O)n(N)c(=O)n(C4CC4)c3c2C)C1`: 5.80; for `CC[C@@H]1CCN(c2c(F)cc3c(=O)c(C(=O)O)cn(C4CC4)c3c2OC)C1`: 5.96.

The subject of a further assay is Escherichia coli. The experiment in a line: Ratio of CC3 for Escherichia coli DNA gyrase gyrA G81C mutant to CC3 for Escherichia coli wild-type DNA gyrase.
Take `CC[C@@H]1CCN(c2c(F)cc3c(=O)n(N)c(=O)n(C4CC4)c3c2OC)C1`: the Ratio came to 2.3.
For `CC[C@@H]1CCN(c2c(F)cn3c(=O)n(N)c(=O)c(C4CC4)c3c2OC)C1`, the Ratio worked out at 2.3.
`CC[C@@H]1CCN(c2c(F)cc3c(=O)n(N)c(=O)n(C4CC4)c3c2C)C1`: the Ratio worked out at 3.1.
Consider `CC[C@@H]1CCN(c2c(F)cc3c(=O)c(C(=O)O)cn(C4CC4)c3c2OC)C1`, for which the Ratio worked out at 13.

In the next assay the test system is Escherichia coli. As to the kind of experiment: Selectivity ratio of IC50 for Escherichia coli DNA gyrase gyrA A67S mutant to IC50 for Escherichia coli wild-type DNA gyrase.
Consider `CC[C@@H]1CCN(c2c(F)cc3c(=O)n(N)c(=O)n(C4CC4)c3c2OC)C1`, for which the Ratio IC50 was 0.86.
On to `CC[C@@H]1CCN(c2c(F)cn3c(=O)n(N)c(=O)c(C4CC4)c3c2OC)C1`, for which the Ratio IC50 was 1.7.
With `CC[C@@H]1CCN(c2c(F)cc3c(=O)n(N)c(=O)n(C4CC4)c3c2C)C1`, the Ratio IC50 is 1.3.
In the case of `CC[C@@H]1CCN(c2c(F)cc3c(=O)c(C(=O)O)cn(C4CC4)c3c2OC)C1`, the Ratio IC50 stood at 0.75.

For a further assay, the system named is Escherichia coli. The experiment in a line: Selectivity ratio of IC50 for Escherichia coli DNA gyrase gyrA G81C mutant to IC50 for Escherichia coli wild-type DNA gyrase.
Take `CC[C@@H]1CCN(c2c(F)cc3c(=O)n(N)c(=O)n(C4CC4)c3c2OC)C1`: the Ratio IC50 came out at 1.5.
Still for that read-out and setting: under `CC[C@@H]1CCN(c2c(F)cn3c(=O)n(N)c(=O)c(C4CC4)c3c2OC)C1` stands 2.8; under `CC[C@@H]1CCN(c2c(F)cc3c(=O)n(N)c(=O)n(C4CC4)c3c2C)C1`, 1.8.
For the molecule `CC[C@@H]1CCN(c2c(F)cc3c(=O)c(C(=O)O)cn(C4CC4)c3c2OC)C1`, the Ratio IC50 stood at 7.5.
